The values below come from patent EP0297946A2, “Cytochalasin purification methods and compositions” (priority 1987, dated 1989).

Data set [1] can be described thus: Tissue distribution of CB in vivo after IP bolus injection, HPLC analysis of tissue extracts. Set-up: species or system mice. To be noted: 50 mg/kg IP single bolus. On the procedure:
(§1) The maximum tolerated single bolus dose (MTD) of CB (LD₅₋₁₀) was estimated as a function of vehicle and route of administration, in M109 tumor-bearing, B16F10 tumor-bearing, and normal mice (Table 2). Both CD2F₁ and B6D2F₁ mice were tested. […] In tissue distribution studies of CB in vivo, 50 mg/kg (1000 ug/20 g mouse) was injected intraperitoneally and the distribution determined at time intervals thereafter as explained in Example 13. […] It is cleared from the spleen and pancreas by 12 hours, but persists in liver for 72 hours. Some CB is metabolized within the first few minutes after injection, but the remaining 35% persists in liver for up to 72 hours. Sustained release formulations such as liposomes would maintain active CB in tissues.
Livers of mice treated according to Examples 4, 5 and 6 were homogenized with a Brinkman polytron using 5.0 ml of methanol /g tissue. The homogenate was centrifuged at 5000g for 5 minutes. The supernatant was brought to 80% water using HPLC grade water and passed through Sep-Pak C-18 cartridges that had first been conditioned with 5.0 ml methanol, followed by 10.0 ml of distilled water. The cartridges were dried under vacuum and washed with 3.0 ml hexane (HPLC grade), and the CB recovered with 2.0 ml of EtOAc (HPLC grade). The elutes were evaporated under a stream of nitrogen and dissolved in 250 ul tetrohydrofuran (HPLC grade). Samples were filtered through a 0.45 um nylon syringe filter into a 50 ul sample loop. The samples were analyzed by HPLC, using a regular phase silica column, a solvent system of hexane:tetrahydrofuran (60:40), and analyzed at 230 nm. The lower limit of sensitivity was determined to be 1 ug per total extract since 20% was analyzed with a quantitative limit of 0.2 ug.

The nature of data set [2]: Maximum tolerated single bolus dose (MTD) of CB by vehicle and route of administration. The format is in vivo, CD2F₁ mice. To be noted: for MTD: mouse, in vivo. How it is done:
as §1
The vehicles used in the invention may be selected with regard to the intended route of administration and standard pharmaceutical practice. The preparations can be injected parenterally, for example, intra-arterially or intravenously. The preparations may also be administered via oral, subcutaneous, intraperitoneal, or intramuscular routes. For parenteral administration, they can be used, for example, in the form of a sterile pyrogen-free aqueous solution which may contain other solutes.
For example, in the present studies, 0.85% (wt/v) sterile sodium chloride solution, sterile pyrogen-free CM-cellulose (1%)Tween-20 (2%), 10% Intralipid (Cutter Laboratories), or 48% ethanol/sodium chloride (v/v) solution were used as vehicles. Liposomes can alternatively be used as a vehicle. In such cases, the CB can be entrapped by any of the methods known in the art for forming liposomes, mentioned hereinbelow, and administered by any of the above-named routes of administration.
The MTD of CB suspension in pyrogen-free carboxymethyl cellulose(1%)/Tween -20 (2%) was 100 mg/kg SC, 50 mg/kg IP, and 10 mg/kg IV when administered to CD2F₁ mice. In DMSO, the MTD was 25 mg/kg IP, and less than 100 mg/kg SC, and in 33% ethanol, 10 mg/kg IV. At doses of 100 -150 mg/kg CB administered SC in CMC/Tw to CD2F₁ mice that had sustained challenge 24 hr with M109 tumor cells implanted SC, appearance of measurable tumor nodules were delayed by 66%.
The maximum tolerated dose (MTD) of CB (50 mg/kg CB) by intraperitoneal administration was determined by the following procedure. A solution of CB as isolated by Example 2 was obtained by sonication of the CB in DMSO (to make a 25 mg/kg solution of CB) for 2 minutes in an ultrasonic bath at 80-90 Hz power.
The above procedure was repeated for CB in CM-cellulose/Tween 20 (CMC/Tw) vehicle (0.1 ml administered).
The above procedures were repeated for 25 and 100 mg/kg CB in DMSO, and for 100 mg/kg CB in CMC/Tw.
The maximum tolerated dose (MTD) of CB (150 mg/kg, in CMC/Tw) by subcutaneous administration over the peritoneal wall was determined by the procedure of Example 8.
The maximum tolerated dose (MTD) of CB (5 mg/kg) by intravenous administration was determined by the procedure of Example 7. The CB was suspended in 0.1 ml 95% ethanol/0.85% NaCl (1:2 v/v), heated to 37°C and administered via tail vein within 5 minutes of mixing.
The above procedure was repeated using 0.1 ml CM-Cellulose/Tween 20.
The above procedure was repeated using 10, 20, 40, and 50 mg/kg dose of CB with the CM-Cellulose/Tween 20 vehicle, and 10, 20, and 40 mg/kg CB with EtOH/NaCl.

The subject of data set [3] is Madison 109 (M109) carcinoma. Kind of data set: Madison 109 carcinoma tumor model in mice treated with a single bolus of CB. The format is in vivo, CD2F₁ mice. On the procedure: For SC tumors, growth was monitored by calculating tumor weight according to the methods of Johnson et al. (1975, Cancer Chemo. Rep., 59(4):697-705). For IP and IV-induced tumors, growth was determined by host survival. Metastases were determined at necropsy by fixation of the organ in Bouins solution according to standard procedure, and metastatic foci counted under a dissecting microscope (see Table 1).
Madison 109 (M109) carcinoma was maintained in Balb/c and CD2F₁ mice by serial passage of 20% tumor brei (approximately 1X10⁶ total cells) in mice every 12 days according to the techniques of Rose (1981, Cancer Treat. Rep., 65:299-312). The CD2F₁ were implanted with 0.2 ml M109 SC ventrally on the abdomen. Tumor brei were prepared by excising the tumor from the passage mouse, removing any necrotic areas, weighing the tumor, mincing it, and suspending the fragments in 0.1 ml 20% (v/v) penicillin/streptomycin (Gibco) and 0.85% (w/v) sterile sodium chloride solution (total 1.0 ml/g tumor), and dispersed by repeated aspiration and expulsion through a syringe. The suspension was then diluted to 20% with 0.85% sterile sodium chloride and 0.2 ml was injected SC. Viability of the tumor suspension was about 20%, as determined by the standard trypan blue exclusion test.
The above procedure was repeated, administering the M109 tumor brei IV 90.1 ml) through the tail vein, or IP (0.2 ml).
Mice (6) were subcutaneously implanted with 1X10⁵ tumor cells as isolated in Example 4 on Day 0, and drug treatment was given on Day 1. CB (100 mg/kg mouse, or 0.2 ml of 10.0 mg/ml CB, per 20 gm mouse), suspended in CMC/Tw was administered to mice.
Lower tumor weight was detected in all the treated groups as compared to controls, although this difference lessened with advancing stage of tumor growth. […] No effect on reducing tumor metastases in the liver or spleen was detected with SC administration of CB.

For data set [4], the system named is P388 murine leukemia cells (drug-resistant line). Kind of data set: cells. In kind it is cell-based. To be noted: Mus musculus. How it is done:
ICs for cytochalasins and antineoplastic agents were determined by inoculating wells containing cultured cells with dilutions of the desired compound, and the resulting exposed cell viability determined at a fixed timepoint after exposure (i.e., 20 or 48 hours). The concentration of the compound that is found to inhibit 50% of the initial cells cultured is the IC50 of that compound with respect to those cells. The IC90 and IC100s can similarly be determined.
Inhibitory concentrations ("ICs") of ADR, CA, and CB on P388 murine leukemia cells (drug-resistant line) were determined as follows.
Cells (5 X 10⁴) were plated out in 200 uL of RPMI 1640 medium containing 10% calf serum. CB, CA, and ADR were added to wells as follows to determine inhibitory concentration as follows: 8 wells were inoculated with dilutions of CB: 0.00 uM CB, 1.00 uM CB, 2.00 uM CB, 4.00 uM CB, 10.00 uM CB, 20.00 uM, 40.00 uM CB, and 80.00 uM CB. […]
All wells were incubated at 37°C, in 5% CO₂ for 3 hours, after which time the plate was centrifuged at 600 X g for 5 minutes, the drug medium removed and replaced with 200 uL of fresh RPMI 1640 medium, containing 10% calf serum, centrifuged again at 600 X g, and cells refed and incubated for 45 hours at 37°C, in 5% CO₂. After the 45 hour incubation, the cells were analyzed for viability using the MTT reduction assay as described in Alley et al.

A further data set deals with B16F10 tumor. Briefly: Dose response against B16F10 tumor in mice, CB given peri-tumorally SC. In kind it is in vivo. On the procedure:
CB (100 mg/kg) administered peri-tumorally delays the tumor appears from Day 7 to Day 18, when treatment is administered on Day 1.

For data set [5] the following is noted: short-term exposure of about 2 hours; cited from earlier work.
Data set [6] has as its system P388 murine leukemia cells (P388/ADR). Kind of data set: P388/ADR cells in 24-well plates, 3 hours exposure, Coulter counting after 96 hours. The format is cell-based. To be noted: Mus musculus.
Description: P388 murine leukemia cells (P388/ADR) selected for multi-drug resistance to doxorubicin and other natural product anti-tumor agents, provided by the National Institutes of Health, were seeded at 5 X 10⁴ cells/ml in 24-well microtiter plates, 2.0 ml per well, in RPMI 1640 medium with 10% fetal calf serum and 10 uM mercaptoethanol. The cells were allowed to equilibrate and divide overnight at 37°C, in 5% CO₂, then treated in duplicate wells with ADR at 2.5, 5, 10, and 20 uM. Other duplicate wells were treated with CB at 2.5, 5, 7.5, 10, and 20 uM. Duplicate wells also contained the above amounts of ADR and CB, which were added to the cells simultaneously. […] After 3 hours of incubation at 37°C, the cells from each well were transferred to sterile centrifuge tubes, and the wells washed with 2.0 ml of sterile medium to assure full cell transfer. The tubes were centrifuged at 600 x g for 5 minutes, and the drug-medium decanted and discarded. The cells were then resuspended in 2.0 ml of fresh medium and plated into 24-well plates, incubated at 37° C for 96 hours, and cell viability and growth after treatment determined by Coulter counting.
Where [7] appears, read: CB on Day 1 or when the nodule was detected.

Molecules are shown by their SMILES. Values joined by “and” are separate entries in the source; they are usually repeats but may differ in a detail not shown here. Equal entries are not always repeated. Where two headings read alike, the source gives them in different places. Where only a bound is given, the exact number is not on record here.

Molecule `C=C1C(C)C2C(Cc3ccccc3)NC(=O)C23OC(=O)C=CC(O)CCCC(C)CC=CC3C1O` (stereo not drawn) [CB, cytochalasin B] had a persistence in liver in data set [1] of 72 h. Further, the “time by which cleared from the spleen and pancreas” value in data set [1] is not above 12 h. Also, the tissue distribution result in data set [1] is “appears at the highest levels in liver, spleen, and pancreas”. In addition, the “remaining CB that persists in liver for up to 72 hours” value in data set [1] (some CB metabolized within the first few minutes) is on record as 35%. Moreover, the “toxicity in DMSO relative to CM-Cellulose/Tween 20” value in data set [2] (IP administration (Example 8)) and in data set [2] (SC administration (Example 9)) was “approximately twice as toxic” in each case. Further, the MTD is 50 mg/kg in data set [2] (ip, CB suspension in carboxymethyl cellulose(1%)/Tween-20 (2%), single bolus, CD2F₁ mice); 25 mg/kg in data set [2] (ip, in DMSO); 10 mg/kg in data set [2] (iv, CB suspension in carboxymethyl cellulose(1%)/Tween-20 (2%), single bolus, CD2F₁ mice); 10 mg/kg in data set [2] (iv, in 33% ethanol); 100 mg/kg in data set [2] (sc, CB suspension in carboxymethyl cellulose(1%)/Tween-20 (2%), single bolus, CD2F₁ mice); less than 100 mg/kg in data set [2] (sc, in DMSO). Moreover, in data set [2] (single bolus dose), the “sensitivity to CB of CD2F₁ as compared to B6D2F₁ mice” value is recorded as “Slightly greater sensitivity”. Besides, the “lung tumor nodules (metastases) versus vehicle controls” value in data set [3] (100 mg/kg CB SC at the time of tumor detection) is given as “fewer lung tumor nodules”. Besides, the “delay of appearance of measurable tumor nodules” value in data set [3] (100-150 mg/kg CB SC in CMC/Tw, CD2F₁ mice, 24 hr after SC M109 challenge) is recorded as 66%. For the same molecule, the “animals tumor-free by Day 50” value in data set [3] (setting [7]) came to 33%. In data set [3] (setting [7]), the median survival time result is “increased median survival time”. Besides, the “cytotoxic effects (life span)” value in data set [3] (IV tumor challenge, 50 mg/kg CB by the IP route) is reported as “no cytotoxic effects were observed”. Besides, in data set [3] (SC administration of CB), the “tumor metastases in the liver or spleen” value is recorded as “No effect”. The tumor growth rate result in data set [3] (SC peri-tumorally on Day 1 or when a measurable nodule was observed (around Day 6)) is “significant decrease in tumor growth rate”. In addition, the “effect on SC tumor” value in data set [3] (SC single bolus 24 hours after tumor challenge or when the tumor appeared (about day 6)) was “delay the appearance of measurable tumor nodules, to slow growth rate of the nodule to inhibit invasion, and to extend life span”. For the same molecule, the IC50 in data set [4] and in data set [6] was 35 to 40 µM in each case. Besides, the “day of tumor appearance” value with B16F10 tumor (CB 100 mg/kg peri-tumorally on Day 1, without treatment Day 7) is 18 days. Moreover, the “tumor nodule growth rate” value in the data set on B16F10 tumor (CB administered subcutaneously) is listed as “measurable effect”. The non-cytotoxic concentration result in data set [5] was “up to 100 ug/ml and ≤ 200 uM”.

With `COc1cccc2c1C(=O)c1c(O)c3c(c(O)c1C2=O)C[C@@](O)(C(=O)CO)C[C@@H]3O[C@H]1C[C@H](N)[C@H](O)[C@H](C)O1` [ADR, doxorubicin, reference compound], the IC50 in data set [4] (3 hours exposure, viability by MTT after 45 hours, read-out: IC50) is 3.5 µM.

By MTD is commonly meant the largest dose that counted as tolerated. A word on the IC50: it is the point on the concentration scale where inhibition reaches its midpoint.
